Source: patent EP2954896A1, “Small molecule inhibitors of the E3 Ligase Skp2 in depression and other diseases” (Max-Planck-Gesellschaft zur Förderung der Wissenschaften …, priority 2014, dated 2015)

Experiments:
[1] = test system: Beclin1 mRNA; assay: Beclin1 mRNA expression by qPCR in rat cortical astrocytes; format: cell-based; conditions: 10µM for 72h; vehicle set to 1
Protocol: (§1) Enriched astroglial cultures were prepared from postnatal day 1 rat pups (Sprague-Dawley, Charles River, Sulzfeld, Germany) and handled as described by Attwood BK et al. (2011) Nature 473: 372-375 and Hartmann J et al. (2012) Neuropharmacology 62: 332-339.
Total RNA was isolated from astroglial cells according to the manufacturer's protocol of NucleoSpin RNA II (Macherey-Nagel, Germany). In total, 300 ng of purified RNA was reverse transcribed using random primers (Promega) and Omniscript® Reverse Transcriptase (Qiagen). Based on the LightCycler® System (Roche Applied Science, Germany) and SYBR green detection (QuantiFast® SYBR Green; Qiagen), quantitative assessment of Beclin1 cDNA levels were performed. b-Actin PCR was performed serving as endogenous control for normalization. The primers used were: for Beclin1: antisense - 5'-[…]-3' sense - 5'-[…]-3'; and for β-Actin: antisense - 5'-[…]-3', sense-5'-[…]-3'. Relative changes of gene expression were calculated using the comparative ΔΔCT method (Livak and Schmittgen, METHODS 25, 402-408, 2001). Detection of viral RNA by real-time PCR was as recently described (Corman et al. (2014) Journal of Clinical Virology 60: 168-171).
Beclin1 mRNA expression levels were determined by qPCR. HEK cells were treated either with proteasome inhibitor MG132 or with vehicle for 5h and Beclin1 protein levels were determined by Western analysis. Furthermore Co-immunoprecipitations were performed with Beclin1 antibody in HEK cell lysates with ectopic Ub-GFP.

[2] = Forced swim test after acute antidepressant injection in Fkbp51+/+ and Fkbp51-/- mice; format: in vivo; conditions: FKBP51 WT versus FKBP51 KO mice; 10 mg kg-1 intraperitoneal
Protocol: The Fkbp51^-/- mouse line was previously generated (Touma C et al. (2011) Biol. Psychiatry 70: 928-936) and fully backcrossed to C57/BI6. […] Hippocampus and prefrontal cortex were extracted. […] Male mice (age 10-16 weeks) were injected intraperitoneally with a single dose of either AMI (10 mg kg^-1) or saline vehicle. […] Another subgroup (WT n=5, KO n=5) was sacrificed, and brain tissue and blood was sampled for analysis of drug concentrations. […] The inventors performed an additional forced swim test administering the antidepressant amitriptyline in FKBP51 WT and FKBP51 KO mice (Fig. 1 B).

[3] = test system: autophagy markers; assay: Autophagy markers in protein extracts of hippocampus and prefrontal cortex after acute antidepressant injection; format: in vivo, mice; conditions: FKBP51 WT versus FKBP51 KO mice; 10 mg kg-1
Protocol: Western blot analysis was performed on eluates from ColPs or with protein extracts from cells or tissue. Protein extracts were obtained by lysing cells or tissue (prelysed as described in the paragraph before) in 62.5 mM Tris, 2% SDS and 10% sucrose, supplemented with protease (Sigma, P2714) and phosphatase (Roche, 04906837001) inhibitor cocktail. Samples were sonicated and heated at 95 °C for 5 min. Proteins were separated by SDS-PAGE and electro-transferred onto nitrocellulose membranes. Blots were placed in Tris-buffered saline, supplemented with 0.05% Tween (Sigma, P2287) and 5% non-fat milk for 1 h at room temperature and then incubated with primary antibody (diluted in TBS/0.05% Tween) overnight at 4 °C. The following primary antibodies were used: Beclin1 (1:1000, Cell Signaling, #3495), Atg12 (1:1000, Cell Signaling #2010), LC3B-I/II (1:1000, Cell Signaling, #2775), FLAG (1:7000, Rockland, 600-401-383), FKBP51 (1:1000, Bethyl, A301-430A), Akt (1:1000, Cell Signaling, #4691), pAkt (1:1000, Ser473, T308, 1:1000, Cell Signaling, #4058, #9275), Actin (1:5000, Santa Cruz Biotechnologies, sc-1616), Skp2, myc (Addgene, 19947), GFP (santa cruz biotechnologies, sc-8334), p27 (cell signaling technologies, 3686), pULK,(S757, cell signaling technologies, 6888) APP-CTF (sigma-aldrich, A8717), DNMT1 (1:1000, Imgenex, IMG-261A), phospho-DNMT1 (S154), (1:1000, Abnova, PAB4924), ptau (S622; Santa Cruz Biotechnologies, #sc-16938).
Subsequently, blots were washed and probed with the respective horseradish peroxidase- or fluorophore-conjugated secondary antibody for 1 h at room temperature. The immuno-reactive bands were visualized either using ECL detection reagent (Millipore, Billerica, MA, USA, WBKL0500) or directly by excitation of the respective fluorophore. Determination of the band intensities were performed with BioRad, ChemiDoc MP, or X-ray-films.
The Fkbp51^-/- mouse line was previously generated (Touma C et al. (2011) Biol. Psychiatry 70: 928-936) and fully backcrossed to C57/BI6. […] Hippocampus and prefrontal cortex were extracted.

[4] = Tail suspension test; format: in vivo; conditions: C57BL/6 mice; SMIP004 0.5 or 5 mgkg-1; paroxetine 10 mgkg-1 as comparator
[5] = test system: Beclin1; assay: Western analysis of Beclin1 protein level in primary rat cortical astrocytes; format: cell-based
Protocol: (§2) Western blot analysis was performed on eluates from ColPs or with protein extracts from cells or tissue. Protein extracts were obtained by lysing cells or tissue (prelysed as described in the paragraph before) in 62.5 mM Tris, 2% SDS and 10% sucrose, supplemented with protease (Sigma, P2714) and phosphatase (Roche, 04906837001) inhibitor cocktail. Samples were sonicated and heated at 95 °C for 5 min. Proteins were separated by SDS-PAGE and electro-transferred onto nitrocellulose membranes. Blots were placed in Tris-buffered saline, supplemented with 0.05% Tween (Sigma, P2287) and 5% non-fat milk for 1 h at room temperature and then incubated with primary antibody (diluted in TBS/0.05% Tween) overnight at 4 °C. […]

[6] = test system: Beclin1; assay: Western analysis of Beclin1 and p27 protein levels in HEK 293 and astrocytic lysates; format: cell-based; conditions: HEK 293 and primary rat cortical astrocytic lysates
Protocol: as §2

[7] = test system: soluble Aβ; assay: Aβ42 ELISA in Alzheimer model mice (TG2576); format: in vivo, TG2576 animals; conditions: 5mg/kg daily intraperitoneal for 3 months
Protocol: (§3) TG2576 animals (used as Alzheimer's disease model, overexpress a mutant form of amyloid precursor protein (APP)) were chronically treated with daily intraperitoneal injections of SMIP004 (N-(4-butyl-2-methylphenyl)acetamide; 5mg/kg) or vehicle (0.9% NaCl; 1.25% DMSO) for 3 months. Brain and other tissue was analyzed for markers of autophagy and for the levels of soluble beta-amyloid (Aβ). It is commonly assumed that Aβ agglomerates are causally linked to Alzheimer's disease.

[8] = test system: CA1 neuronal activity; assay: Voltage-sensitive dye imaging (VSDI) of evoked CA1 neuronal activity in brain slices; conditions: 10 µM SMIP004, 1 h after wash in; slices from C57BL/6 mice
Source text: Brain slices were obtained from 11-18 week-old male FKBP51+/+ and FKBP51-/- litter mates (Fig. 1) or from BL6 mice (Fig. 7). […] Four acquisitions subsequently recorded at intervals of 5 s were averaged. Neuronal activity was evoked by square pulse electrical stimuli (200 µs pulse width) delivered via a custom-made monopolar tungsten electrode to the Schaffer collateral-commissural pathway. The circular ROI was placed into the CA1 stratum radiatum near the stimulation electrode. The ROI also covered a part of the adjacent CA1 stratum pyramidale (Fig. 1 B). The intensity of voltage stimulation was adjusted to produce FDSs with peak amplitudes of ~30% of the highest attainable value.
Hippocampal CA3-CA1 synapses were electrically stimulated in brain slices from Fkbp51^+/+ and Fkbp51^-/- mice, and CA1 neuronal activity was monitored by means of voltagesensitive dye imaging (VSDI).

[9] = test system: Beclin1; assay: Protein levels in brain extracts (hippocampus, prefrontal cortex) of SMIP004-treated mice; format: in vivo, C57BL/6 mice; conditions: various cell types; brain lysates of animals treated with SMIP004 (0.5 or 5 mgkg-1)
Protocol: as §2
Furthermore the neuronal activity in CA1 hippocampus was measured after treatment with SMIP004 (Figure 7). […] And protein levels were determined in extracts of the hippocampus and the prefrontal cortex.

[10] = test system: autophagy; assay: Autophagy markers (Western blot, Beclin1 immunoprecipitation) in brain extracts of Alzheimer model mice (TG2576); format: in vivo, TG2576 animals; conditions: 5mg/kg daily intraperitoneal for 3 months
Protocol: (§4) For the precipitation of Beclin1 from brain tissue (Fig. 15), the tissue was first homogenized (300µL of Buffer I (50 mM Tris (pH 7.5), 150 mM NaCl, 5 mM EDTA, Protease inhibitor Mix (Sigma , P2714), Phosphatase Inhibitor (Roche, 04906837001)) followed by sonication and addition of 300µL of Buffer II (50 mM Tris (pH 7.5), 150 mM NaCl, 1% NP40, 1% Deoxycholate, 2% SDS, Protease inhibitor Mix (Sigma , P2714), Phosphatase Inhibitor (Roche, 04906837001)).
as §2, with “membranes.” for “membranes. Blots were placed in Tris-buffered saline, supplemented with 0.05% Tween (Sigma, P2287) and 5% non-fat milk for 1 h at room temperature and then incubated with primary antibody (diluted in TBS/0.05% Tween) overnight at 4 °C.”
as §3, with “It is commonly assumed that Aβ agglomerates are causally linked to Alzheimer's disease.” left out

[11] = test system: primary rat cortical astrocytes; assay: MTT cytotoxicity assay in primary rat cortical astrocytes; format: cell-based
Protocol: as §1
In an effort to find a small molecule to inhibit the E3 ligase Skp2 three promising candidates of published chemical genetic screens were tested on cellular toxicity and its potency to stabilise Beclin1. Cytotoxicity was determined by an MTT assay performed in HEK 293 cell and in primary rat cortical astrocytes. Effects of small compounds on Beclin1 and p27 protein levels were determined by Western analysis of HEK 293 primary rat cortical astrocytic lysates (see Fig. 6).

[12] = test system: APP-CTF; assay: APP-CTF Western blot in brain extracts of Alzheimer model mice (TG2576); format: in vivo, TG2576 animals; conditions: 5mg/kg daily intraperitoneal for 3 months
Protocol: as §4
as §2, with “membranes.” for “membranes. Blots were placed in Tris-buffered saline, supplemented with 0.05% Tween (Sigma, P2287) and 5% non-fat milk for 1 h at room temperature and then incubated with primary antibody (diluted in TBS/0.05% Tween) overnight at 4 °C.”
as §3, with “It is commonly assumed that Aβ agglomerates are causally linked to Alzheimer's disease.” left out

SMILES	Beclin1 mRNA expression level [1]	behavioral effects, forced swim test [2]	effects on autophagy markers [3]	antidepressant-like behavior in the tail suspension test [4]	effect on Beclin1 protein level [5]	stabilization of Beclin1 (protein level, Western analysis) [6]	levels of soluble Aβ in plasma and CSF [7]	synaptic neurotransmission (CA1 FDSs, VSDI) [8]	Beclin1 stabilization confirmed in other cell types and mice brain lysates [9]	induction of autophagy (p27, Beclin1, Atg12, pULK S757; Beclin1 ubiquitinylation, Vps34 association) [10]	cytotoxic effects (MTT assay) [11]	levels of APP-CTF in the brain [12]
CNCCC(Oc1ccc(C(F)(F)F)cc1)c1ccccc1 (stereo not shown) [fluoxetine]	do not change Beclin1-mRNA											
CN(C)CCC=C1c2ccccc2CCc2ccccc21 [amitriptyline]	do not change Beclin1-mRNA	only observed in FKBP51 WT mice but not in FKBP51 KO mice	only observed in FKBP51 WT mice but not in FKBP51 KO mice									
CCCCc1ccc(NC(C)=O)c(C)c1 [SMIP004, N-(4-butyl-2-methylphenyl)acetamide]				antidepressant-like behavior comparable to animals treated with paroxetine	particularly strong	potent stabilizer of Beclin1	reduces the levels of soluble Aβ in plasma and CSF	increased synaptic neurotransmission similarly to paroxetine	confirmed in various cell types as well as in mice brain lysates	induces autophagy, independently of the mTOR-ULK1 cascade	very low cytotoxic effects	reduces the levels of APP-CTF in the brain
